Source: patent US10287267B2, “Isoquinolin-3-yl carboxamides and preparation and use thereof” (Samumed, LLC, priority 2016, dated 2019)

Assays:
[1] = test system: SW480 colon carcinoma cells; assay: Cell viability assay (CellTiter-Glo); type: cell-based, human; settings: Homo sapiens, 96 h; SW480 cells, CellTiter-Glo, four days incubation
recombinant GSK3β kinase = recombinant GSK3β kinase (Homo sapiens (Human), UniProt P49841); assay: GSK3β kinase assay (Ser/Thr 09 peptide Z-lyte FRET); type: biochemical; settings: 46 μM ATP, 1 h room temperature;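 further: kinase activity read as coumarin to fluorescein emission ratio, 11-point threefold dilutions from 10 µM to 0.0003 µM in duplicate, unphosphorylated and phosphorylated peptide as 0% and 100% controls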
[2] = test system: α-smooth muscle actin (αSMA) positive LL29 cells; assay: Inhibition of fibrotic process: αSMA in TGF-β1 treated primary human fibroblasts from IPF patients; type: cell-based; settings: Homo sapiens, Fibroblast; for EC50: 96 h, Table 8, LL29 fibroblasts from IPF patients, TGF-β1 20 ng/mL, 4 days, dose-response 10 μM to 0.94 nM; for inhibition at 10 µM: read-out: percent value in parentheses beside EC50 >10 μM;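 on all read-outs here: controls were TGF-β1 stimulated wells with DMSO vehicle (positive) and cells given DMSO alone (negative), cultured in F12 medium with 1% fetal bovine serum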
[3] = molecular target: recombinant DYRK1A kinase (Homo sapiens (Human), UniProt Q13627); assay: DYRK1A kinase assay (Ser/Thr 18 peptide Z-lyte FRET); type: biochemical; settings: 30 μM ATP, 1 h room temperature;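 further: Read-out is the coumarin to fluorescein emission ratio, referenced to unphosphorylated (0%) and phosphorylated (100%) Ser/Thr 18 peptide controls, values from dose-response curves by non-linear regression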
[4] = test system: Tau phosphorylation at Ser396 (pSer396); assay: Tau phosphorylation assay (pSer396 ELISA / western blot) in SH-SY5Y cells; type: cell-based, human; settings: Homo sapiens; SH-SY5Y cells, overnight (16-18 h) exposure; read-out: pSer396 Tau EC50;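 further: EC50 for reduction of Tau pSer396 in lysed cells, measured by colorimetric ELISA or chemiluminescent western blot, both using the same pSer396 antibody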
[5] = test system: Wnt pathway (Sp5-Luc reporter, TCF/LEF binding sites) in SW480 colon carcinoma cells; assay: Screening assay for Wnt activity: Sp5-Luc reporter gene assay; type: cell-based, human; settings: Homo sapiens; for EC50: Sp5-Luc reporter, SW480 cells, 36 to 48 hours;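 on all read-outs here: firefly luciferase luminescence read in stably transduced SW480 cells carrying the Sp5 promoter reporter with eight TCF/LEF sites, compounds given in 0.1% DMSO final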
Method: The screening assay for Wnt activity is described as follows.
Following incubation, 15 μl of BriteLite Plus luminescence reagent (Perkin Elmer) was added to each well of the 384-well assay plates. The plates were placed on an orbital shaker for 2 min and then luminescence was quantified using the Envision (Perkin Elmer) plate reader.

IL-6 = IL-6 inhibition in LPS-stimulated human peripheral blood mononuclear cells (HTRF); type: cell-based; settings: Homo sapiens, PBMC; for EC50: Table 9, huPBMCs, LPS 50 ng/mL, 22 hours, dose-response starting from 10 μM; for inhibition at 10 µM: read-out: percent value in parentheses beside EC50 >10 μM;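 on all read-outs here: IL-6 detected by HTRF with an XL665- and Cryptate-labelled anti-IL-6 antibody pair, samples run in duplicate, EC50 obtained from a four-parameter Levenberg-Marquardt curve fit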
Method: After 22 hour incubation, a mixture of anti-IL6 XL665 and anti-IL-6 Cryptate diluted in reconstitution buffer (Catalog #62IL6PEC, Cisbio Inc., Bedford, Mass.) was added to each well. […] All samples were processed in duplicate. […] EC50 was determined using software generated by Dotmatics Limited (Windhill Bishops Stortford Herts, UK) using the Levenberg-Marquardt 4 parameter fitting procedure with finite different gradients.

Chain of recombinant GSK3β kinase (P49841 whole entry): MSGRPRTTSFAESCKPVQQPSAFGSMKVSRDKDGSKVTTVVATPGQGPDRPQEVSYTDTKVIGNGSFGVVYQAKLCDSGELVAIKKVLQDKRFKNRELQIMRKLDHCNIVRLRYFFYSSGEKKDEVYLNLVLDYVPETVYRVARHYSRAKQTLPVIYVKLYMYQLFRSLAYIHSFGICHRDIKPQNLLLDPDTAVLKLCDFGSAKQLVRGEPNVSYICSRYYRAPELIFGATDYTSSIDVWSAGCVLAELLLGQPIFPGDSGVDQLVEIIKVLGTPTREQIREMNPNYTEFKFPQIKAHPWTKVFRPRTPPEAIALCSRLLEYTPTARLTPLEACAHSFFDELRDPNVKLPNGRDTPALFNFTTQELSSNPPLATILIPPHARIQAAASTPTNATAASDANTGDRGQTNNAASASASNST

Row | SMILES | EC50 [1] [nM] | EC50 (recombinant GSK3β kinase) [nM] | EC50 [2] [nM] | EC50 [3] [nM] | EC50 [4] [nM] | EC50 [5] [nM] | EC50 (IL-6) [nM] | inhibition at 10 µM [2] [%] | inhibition at 10 µM (IL-6) [%] | inhibition at 10 µM ([5]; SW480, read-out: percent inhibition at 10 μM) [%]
1 | Cn1cc(-c2ccc3cnc(NC(=O)CC4CNCCO4)cc3c2)cn1 (centres unmarked) [Compound 349, N-(6-(1-Methyl-1H-pyrazol-4-yl)isoquinolin-3-yl)-2-(morpholin-2-yl) acetamide] | 704 | 66 | 145 | 6.5 | 351 | 712 | 307 |  |  | 
2 | CN1CCOC(CC(=O)Nc2cc3cc(-c4cnn(C)c4)ccc3cn2)C1 (centres unmarked) [Compound 350, N-(6-(1-Methyl-1H-pyrazol-4-yl)isoquinolin-3-yl)-2-(4-methylmorpholin-2-yl)acetamide] | 1080 | 33 | 100 | 6.2 | 417 | 1000 | 578 |  |  | 
3 | CCN1CCN(CC(=O)Nc2cc3cc(-c4cnn(C)c4)ccc3cn2)CC1 [Compound 351, 2-(4-Ethylpiperazin-1-yl)-N-(6-(1-methyl-1H-pyrazol-4-yl)isoquinolin-3-yl) acetamide] | 6880 | 130 | > 10000 | 13.6 | 846 | 2520 | 3010 | 38.8 |  | 
4 | CC(C)N1CCN(CC(=O)Nc2cc3cc(-c4cnn(C)c4)ccc3cn2)CC1 [Compound 352, 2-(4-Isopropylpiperazin-1-yl)-N-(6-(1-methyl-1H-pyrazol-4-yl)isoquinolin-3-yl)acetamide] | 8600 | 110 | 1320 | 21.5 | 1300 | 2960 | 5030 |  |  | 
5 | Cn1cc(-c2ccc3cnc(NC(=O)CN4CCN(C5CC5)CC4)cc3c2)cn1 [Compound 353, 2-(4-Cyclopropylpiperazin-1-yl)-N-(6-(1-methyl-1H-pyrazol-4-yl)isoquinolin-3-yl)acetamide] | 8220 | 29 | > 10000 | 8.6 | 724 | 5710 | > 10000 | 31.7 | 39.9 | 
6 | Cn1cc(-c2ccc3cnc(NC(=O)CN4CCN(CCF)CC4)cc3c2)cn1 [Compound 354, 2-(4-(2-Fluoroethyl)piperazin-1-yl)-N-(6-(1-methyl-1H-pyrazol-4-yl)isoquinolin-3-yl)acetamide] | 4990 | 37 | 346 | 4.4 | 1200 | 2320 | 7000 |  |  | 
7 | C[C@H]1CN(C)CCN1CC(=O)Nc1cc2cc(-c3cnn(C)c3)ccc2cn1 [Compound 355, (S)-2-(2,4-Dimethylpiperazin-1-yl)-N-(6-(1-methyl-1H-pyrazol-4-yl)isoquinolin-3-yl)acetamide] | 8630 | 228 | 6190 | 6.4 | 1700 | 3510 | 9130 |  |  | 
8 | Cn1cc(-c2ccc3cnc(NC(=O)C4CCN(CCO)CC4)cc3c2)cn1 [Compound 358, 1-(2-Hydroxyethyl)-N-(6-(1-methyl-1H-pyrazol-4-yl)isoquinolin-3-yl) piperidine-4-carboxamide] | 2370 | 80 | 145 | 0.6 | 353 | 413 | 613 |  |  | 
9 | Cn1cc(-c2ccc3cnc(NC(=O)C4CCN(Cc5ccccn5)CC4)cc3c2)cn1 [Compound 359, N-(6-(1-Methyl-1H-pyrazol-4-yl)isoquinolin-3-yl)-1-(pyridin-2-ylmethyl) piperidine-4-carboxamide] | 261 | 82 | 127 | 3 | 521 | 669 | 1030 |  |  | 
10 | Cn1cc(-c2ccc3cnc(NC(=O)C4CCN(Cc5ncco5)CC4)cc3c2)cn1 [Compound 360, N-(6-(1-Methyl-1H-pyrazol-4-yl)isoquinolin-3-yl)-1-(oxazol-2-ylmethyl) piperidine-4-carboxamide] | 570 | 47 | 94 | 1.9 | 659 | 690 | 1170 |  |  | 
11 | CN1CCC[C@@H]1C(=O)Nc1cc2cc(-c3cnn(C)c3)ccc2cn1 [Compound 363, (R)-1-Methyl-N-(6-(1-methyl-1H-pyrazol-4-yl)isoquinolin-3-yl)pyrrolidine-2-carboxamide] | 3060 | 35 | 387 | 50.3 | 406 | 2360 | 1220 |  |  | 
12 | Cn1cc(-c2ccc3cnc(NC(=O)C4CC4)c(Cl)c3c2)cn1 [Compound 364, N-(4-Chloro-6-(1-methyl-1H-pyrazol-4-yl)isoquinolin-3-yl) cyclopropanecarboxamide] | 5600 | 3120 | > 10000 | 840 | > 10000 | > 10000 | > 10000 | 15 | 5.8 | 24.1
13 | Cn1cc(-c2ccc3cnc(NC(=O)[C@H]4CC[C@H](N)CC4)cc3c2)cn1 [Compound 365, trans-4-Amino-N-(6-(1-methyl-1H-pyrazol-4-yl)isoquinolin-3-yl) cyclohexane-1-carboxamide] | 522 | 52 | 4800 | 2.7 | 1200 | 381 | 526 |  |  | 
14 | Cn1cc(-c2cc(F)c3cnc(NC(=O)C4CCNCC4)cc3c2)cn1 [Compound 366, N-(8-Fluoro-6-(1-methyl-1H-pyrazol-4-yl)isoquinolin-3-yl)piperidine-4-carboxamide] | 910 | 116 | 173 | 10.6 | 1100 | 334 | 1120 |  |  | 
15 | CC(C)CN1CCC(C(=O)Nc2cc3cc(-c4cnn(C)c4)cc(F)c3cn2)CC1 [Compound 367, N-(8-Fluoro-6-(1-methyl-1H-pyrazol-4-yl)isoquinolin-3-yl)-1-isobutylpiperidine-4-carboxamide] | 8240 | 56 | 211 | 11.1 | 258 | 524 | 1150 |  |  | 
16 | Cn1cc(-c2cc(F)c3cnc(NC(=O)C4CCN(CCF)CC4)cc3c2)cn1 [Compound 368, N-(8-Fluoro-6-(1-methyl-1H-pyrazol-4-yl)isoquinolin-3-yl)-1-(2-fluoroethyl) piperidine-4-carboxamide] | 651 | 51 | 272 | 7.9 | 660 | 689 | 1190 |  |  | 
17 | Cn1cc(-c2cc3cc(NC(=O)C4CCNCC4)ncc3cc2F)cn1 [Compound 369, N-(7-Fluoro-6-(1-methyl-1H-pyrazol-4-yl)isoquinolin-3-yl)piperidine-4-carboxamide] | 864 | 101 | 295 | 2.8 | 970 | 743 | 1130 |  |  | 
